Tested on: moderate-to-severe chronic spontaneous urticaria (CSU)
Assay: Phase 2 CSU study: urticaria activity score over 7 days (UAS7)
Assay type: in vivo, human
Conditions: Omalizumab-Naïve
Text: The study comprises a 12 week, randomized, double-blind, placebo-controlled, multi-center, dose-ranging efficacy and safety phase, followed by a 40 week open label extension (OLE) phase (see FIG. 1). The study consists of three phases and an optional OLE phase. […] Clinically, CSU is characterized by the spontaneous and recurrent appearance of pruritic hives. The proposed primary endpoints were the UAS7 at Week 12 in EU and EU reference countries and the ISS7 in the US. Regardless of where a participant was from, all assessments were the same. The UAS7 score is a composite score containing both the HSS7 and the ISS7. This allowed a global assessment of the two key components of urticaria: hives and itch. […] The UAS is a validated PRO measure. […] The daily UAS scores range from 0 to 6 point/day. […] Patients were to complete the UAS using the e-diary. […] The following secondary endpoints were to be analyzed using the same approach as for the primary endpoint: • Change from baseline in UAS7 at Week 4 • Change from baseline in UAS7 at Week 12 (for US and US reference countries) • Change from baseline in ISS7 at Week 12 (except US and US reference countries) • Change from baseline in HSS7 at Week 12 The following responder secondary endpoints were to be analyzed using the Cochran-Mantel-Haenszel test adjusted by region: • Proportion of participants with UAS7<6 at Week 12 • Proportion of participants with UAS7=0 at Week 12 Participants who received selected prohibited medications and/or rescue medications were to be considered as non-responders for time points after the medication usage. For other participants, all available data including those collected during the off-treatment period were to be used to determine the responder/non-responder status. Missing data were to be considered as non-responders.

[1] = Baseline Eosinophils (10^9/L) ≥0.3, 400 mg BID
[2] = Baseline Eosinophils (10^9/L) ≥0.3, 400 mg QPM
[3] = Baseline Eosinophils (10^9/L) ≥0.3, 400 mg TID
[4] = Baseline H1-antihistamines dose 1-fold, 400 mg BID
[5] = Baseline H1-antihistamines dose 1-fold, 400 mg QPM
[6] = Baseline H1-antihistamines dose 1-fold, 400 mg TID
[7] = Baseline H1-antihistamines dose 2 to 4-fold standard dose, 400 mg BID
[8] = Baseline H1-antihistamines dose 2 to 4-fold standard dose, 400 mg QPM
[9] = Baseline H1-antihistamines dose 2 to 4-fold standard dose, 400 mg TID
[10] = Baseline ISS7 score <13, 400 mg BID
[11] = Baseline ISS7 score <13, 400 mg QPM
[12] = Baseline ISS7 score <13, 400 mg TID
[13] = Baseline ISS7 score ≥13, 400 mg BID
[14] = Baseline ISS7 score ≥13, 400 mg QPM
[15] = Baseline ISS7 score ≥13, 400 mg TID
[16] = Baseline Total IgE (IU/mL) <100, 400 mg BID
[17] = Baseline Total IgE (IU/mL) <100, 400 mg QPM
[18] = Baseline Total IgE (IU/mL) <100, 400 mg TID
[19] = Baseline Total IgE (IU/mL) <300, 400 mg BID
[20] = Baseline Total IgE (IU/mL) <300, 400 mg QPM
[21] = Baseline Total IgE (IU/mL) <300, 400 mg TID
[22] = Baseline Total IgE (IU/mL) ≥100, 400 mg BID
[23] = Baseline Total IgE (IU/mL) ≥100, 400 mg QPM
[24] = Baseline Total IgE (IU/mL) ≥100, 400 mg TID

Compound: CC(C)(C=C(C#N)C(=O)N1CCC[C@@H](n2nc(-c3ccc(Oc4ccccc4)cc3F)c3c(N)ncnc32)C1)N1CCN(C2COC2)CC1 [rilzabrutinib, (R)-2-[3-[4-amino-3-(2-fluoro-4-phenoxy-phenyl)pyrazolo[3,4-d]pyrimidin-1-yl]piperidine-1-carbonyl]-4-methyl-4-[4-(oxetan-3-yl)piperazin-1-yl]pent-2-enenitrile]
- Change from Baseline in UAS7 at Week 12: Mean (SD) (Baseline Eosinophils (10^9/L) ≥0.165 (Median), 400 mg TID): −16.50 (9.30)
- Change from Baseline in UAS7 at Week 12: LS Mean Diff vs. placebo (95% CI) [1]: −3.40 (−16.66, 9.86)
- Change from Baseline in UAS7 at Week 12: Mean (SD) [1]: −13.11 (12.32)
- Change from Baseline in UAS7 at Week 12: LS Mean (SE) [2]: −9.66 (4.84)
- Change from Baseline in UAS7 at Week 12: LS Mean Diff vs. placebo (95% CI) [2]: −2.00 (−16.22, 12.21)
- Change from Baseline in UAS7 at Week 12: Mean (SD) [2]: −9.69 (12.55)
- Change from Baseline in UAS7 at Week 12: LS Mean (SE) [3]: −13.16 (4.09)
- Change from Baseline in UAS7 at Week 12: LS Mean Diff vs. placebo (95% CI) [3]: −5.51 (−18.58, 7.57)
- Change from Baseline in UAS7 at Week 12: Mean (SD) [3]: −14.65 (7.48)
- Change from Baseline in UAS7 at Week 12: LS Mean (SE) [4]: −15.75 (3.11)
- Change from Baseline in UAS7 at Week 12: LS Mean Diff vs. placebo (95% CI) [4]: −3.48 (−11.69, 4.73)
- Change from Baseline in UAS7 at Week 12: Mean (SD) [4]: −18.22 (14.88)
- Change from Baseline in UAS7 at Week 12: LS Mean (SE) [5]: −7.64 (2.73)
- Change from Baseline in UAS7 at Week 12: LS Mean Diff vs. placebo (95% CI) [5]: 4.64 (−2.96, 12.23)
- Change from Baseline in UAS7 at Week 12: Mean (SD) [5]: −8.61 (9.50)
- Change from Baseline in UAS7 at Week 12: LS Mean (SE) [6]: −14.92 (2.59)
- Change from Baseline in UAS7 at Week 12: LS Mean Diff vs. placebo (95% CI) [6]: −2.65 (−10.05, 4.76)
- Change from Baseline in UAS7 at Week 12: LS Mean (SE) [7]: −12.98 (2.55)
- Change from Baseline in UAS7 at Week 12: LS Mean Diff vs. placebo (95% CI) [7]: −6.42 (−13.94, 1.10)
- Change from Baseline in UAS7 at Week 12: LS Mean (SE) [8]: −10.93 (2.77)
- Change from Baseline in UAS7 at Week 12: LS Mean Diff vs. placebo (95% CI) [8]: −4.37 (−12.30, 3.56)
- Change from Baseline in UAS7 at Week 12: Mean (SD) [8]: −12.81 (9.00)
- Change from Baseline in UAS7 at Week 12: LS Mean (SE) [9]: −20.96 (3.15)
- Change from Baseline in UAS7 at Week 12: LS Mean Diff vs. placebo (95% CI) [9]: −14.41 (−22.75, −6.07)
- Change from Baseline in UAS7 at Week 12: Mean (SD) [9]: −24.73 (10.10)
- Change from Baseline in UAS7 at Week 12: LS Mean (SE) [10]: −9.30 (4.02)
- Change from Baseline in UAS7 at Week 12: LS Mean Diff vs. placebo (95% CI) [10]: −4.39 (−14.52, 5.74)
- Change from Baseline in UAS7 at Week 12: Mean (SD) [10]: −10.78 (8.33)
- Change from Baseline in UAS7 at Week 12: LS Mean (SE) [11]: −3.27 (5.21)
- Change from Baseline in UAS7 at Week 12: LS Mean Diff vs. placebo (95% CI) [11]: 1.64 (−10.30, 13.58)
- Change from Baseline in UAS7 at Week 12: Mean (SD) [11]: −5.83 (3.06)
- Change from Baseline in UAS7 at Week 12: LS Mean (SE) [12]: 9.24 (6.48)
- Change from Baseline in UAS7 at Week 12: LS Mean Diff vs. placebo (95% CI) [12]: −4.33 (−18.30, 9.63)
- Change from Baseline in UAS7 at Week 12: Mean (SD) [12]: −10.75 (6.01)
- Change from Baseline in UAS7 at Week 12: LS Mean (SE) [13]: −15.07 (2.33)
- Change from Baseline in UAS7 at Week 12: LS Mean Diff vs. placebo (95% CI) [13]: −4.32 (−10.91, 2.27)
- Change from Baseline in UAS7 at Week 12: Mean (SD) [13]: −15.60 (12.97)
- Change from Baseline in UAS7 at Week 12: LS Mean Diff vs. placebo (95% CI) [14]: 0.28 (−6.08, 6.64)
- Change from Baseline in UAS7 at Week 12: Mean (SD) [14]: −10.91 (9.59)
- Change from Baseline in UAS7 at Week 12: LS Mean (SE) [15]: −18.70 (2.15)
- Change from Baseline in UAS7 at Week 12: LS Mean Diff vs. placebo (95% CI) [15]: −7.95 (−14.32, −1.57)
- Change from Baseline in UAS7 at Week 12: LS Mean (SE) [16]: −15.72 (3.24)
- Change from Baseline in UAS7 at Week 12: LS Mean Diff vs. placebo (95% CI) [16]: −8.43 (−17.18, 0.33)
- Change from Baseline in UAS7 at Week 12: Mean (SD) [16]: −16.26 (11.38)
- Change from Baseline in UAS7 at Week 12: LS Mean (SE) [17]: 8.49 (3.25)
- Change from Baseline in UAS7 at Week 12: LS Mean Diff vs. placebo (95% CI) [17]: −1.19 (−10.05, 7.67)
- Change from Baseline in UAS7 at Week 12: LS Mean (SE) [18]: −17.40 (3.01)
- Change from Baseline in UAS7 at Week 12: LS Mean Diff vs. placebo (95% CI) [18]: −10.10 (−18.54, −1.65)
- Change from Baseline in UAS7 at Week 12: Mean (SD) [18]: −21.03 (13.37)
- Change from Baseline in UAS7 at Week 12: LS Mean (SE) [19]: −14.78 (2.46)
- Change from Baseline in UAS7 at Week 12: LS Mean Diff vs. placebo (95% CI) [19]: −6.72 (−13.41, −0.03)
- Change from Baseline in UAS7 at Week 12: Mean (SD) [19]: 15.35 (12.23)
- Change from Baseline in UAS7 at Week 12: LS Mean (SE) [20]: −9.07 (2.38)
- Change from Baseline in UAS7 at Week 12: LS Mean Diff vs. placebo (95% CI) [20]: −1.01 (−7.60, 5.59)
- Change from Baseline in UAS7 at Week 12: Mean (SD) [20]: −10.61 (9.62)
- Change from Baseline in UAS7 at Week 12: LS Mean (SE) [21]: −18.19 (2.47)
- Change from Baseline in UAS7 at Week 12: LS Mean Diff vs. placebo (95% CI) [21]: −10.13 (−16.83, −3.44)
- Change from Baseline in UAS7 at Week 12: Mean (SD) [21]: −20.66 (12.39)
- Change from Baseline in UAS7 at Week 12: LS Mean (SE) [22]: −13.17 (2.55)
- Change from Baseline in UAS7 at Week 12: LS Mean Diff vs. placebo (95% CI) [22]: −1.67 (−8.84, 5.51)
- Change from Baseline in UAS7 at Week 12: Mean (SD) [22]: −13.19 (12.80)
- Change from Baseline in UAS7 at Week 12: LS Mean (SE) [23]: −8.97 (2.49)
- Change from Baseline in UAS7 at Week 12: LS Mean Diff vs. placebo (95% CI) [23]: 2.53 (−4.52, 9.59)
- Change from Baseline in UAS7 at Week 12: Mean (SD) [23]: −9.90 (9.51)
- Change from Baseline in UAS7 at Week 12: LS Mean (SE) [24]: −17.08 (2.69)
- Change from Baseline in UAS7 at Week 12: LS Mean Diff vs. placebo (95% CI) [24]: −5.57 (−12.83, 1.69)

— patent US20260256792A1, “TREATMENT OF CHRONIC SPONTANEOUS URTICARIA BY ADMINISTERING (R)-2-[3-[4-AMINO-3-(2-FLUORO-4-PHENOXY-PHENYL)PYRAZOLO[3,4-D]PYRIMIDIN-1-YL]PIPERIDINE-1-CARBONYL]-4-METHYL-4-[4-(OXETAN-3-YL)PIPERAZIN-1-YL]PENT-2-ENENITRILE” (priority 2023, published 2026)
